Experimental data: patent US12544392B2, “Treatment of adenovirus infection or disease associated with adenovirus infection” (SymBio Pharmaceuticals Limited, priority 2023, dated 2026)
Entries after “also recorded” stand apart in the source; their conditions may differ.

Key:
[1] = Human clinical study: BCV-related adverse events (NCI CTCAE version 5.0); assay type: in vivo
Description: The study duration is at least 9 weeks, based on a screening period of 1 week, a treatment period of at least 4 weeks, and post-treatment follow-up period of 30 days. In the screening, after informed consent has been obtained from the patients, a screening evaluation is conducted to determine eligibility for the study. On the first day of the first week of the treatment period, patients are assigned a dose based on the applicable cohort (see the section 1.1.3 Cohorts 1-3 above). The duration of treatment is a minimum of 4 weeks and a maximum of 14 weeks, and termination is based on the treatment stopping criteria as described below. For patients who, at the physician's discretion, are assessed as being at high risk for AdV infection/recurrence of disease, the treatment period may be extended for up to 10 weeks, even after the 4-week treatment period is completed, if the AdV is not detected by the two most recent consecutive assays with an interval of 3 days at least. All patients are followed up for 30 days after the last dosing. Adverse events is evaluated according to the National Cancer Institute Common Terminology Criteria for Adverse Events (NCI CTCAE) version 5.0 (grade 1-5). Based on the results of the review of safety data from cohort 1, a decision is made whether to initiate cohort 2. Likewise, the decision to initiate cohort 3 is based on the results of the review of safety data from cohort 2. Enrollment in a new cohort is terminated immediately if grade 3 or higher adverse events are observed in more than 25% of all subjects in the previous cohort.

[2] = PK of BCV in plasma with or without concomitant cyclosporine; assay type: in vivo, human; settings: for increase of AUCinf of BCV in plasma compared with BCV alone / increase of Cmax of BCV in plasma compared with BCV alone: healthy subjects
Source text: (§1) Subjects 101-12 of cohort 2, and 101-15, 101-18 and 110-06 of cohort 3 took cyclosporine, an immunosuppressive drug, during the treatment period (duration of treatment) of intravenous BCV. Prior PK studies in healthy subjects have shown a significant increase in plasma BCV exposure with concomitant intravenous infusion of BCV and cyclosporine. […] In view of the above, for the above patients taking cyclosporine, any of the doses indicated in 1.1.3 (cohorts 1-3) above is reduced to 60% for administration. Note that when cyclosporine is administered as BID (twice daily) oral or injectable form, the administration is conducted with an interval of 2 hours after the completion of intravenous BCV. In the case of continuous infusion of cyclosporine for 24 hours, no interval is needed.
as §1, with “Prior” for “Subjects 101-12 of cohort 2, and 101-15, 101-18 and 110-06 of cohort 3 took cyclosporine, an immunosuppressive drug, during the treatment period (duration of treatment) of intravenous BCV. Prior”, “4.1.3” for “1.1.3”, “4-6)” for “1-3)”

[3] = BCV IV and cyclosporine administered simultaneously
[4] = cyclosporine administered at 2 hours after the end of intravenous BCV infusion over 2 hours

In the case of `CCCCCCCCCCCCCCCCOCCCOP(=O)(O)CO[C@H](CO)Cn1ccc(N)nc1=O` [BCV, [(2S)-1-(4-amino-2-oxopyrimidin-1-yl)-3-hydroxypropan-2-yl]oxymethyl-(3-hexadecoxypropoxy)phosphinic acid], the “BCV-related adverse event, grade (relatedness)” value (“BCV-related adverse event, grade” below) ([1]; cohort 1 (0.2 mg/kg IV twice weekly), patient 109-01, 0.2 mg/kg) is reported as “elevated aspartate transaminase (AST)—grade 1 (probably); also recorded: elevated alanine transaminase (ALT)—grade 1 (probably); also recorded: elevated lactate dehydrogenase (LDH)—grade 1 (possibly)”, the “BCV-related adverse event, grade” value ([1]; cohort 1 (0.2 mg/kg IV twice weekly), patient 110-01) is reported as “diarrhea—grade 2 (possibly)” and the “Grade 3 adverse events (number)” value ([1]; cohort 1: 0.2 mg/kg IV twice weekly) is reported as 0. For the same compound, the “BCV-related adverse event, grade” value ([1]; cohort 2 (0.3 mg/kg IV twice weekly), patient 101-09) was “diarrhea—grade 3 (possibly)”, the “BCV-related adverse event, grade” value ([1]; cohort 2 (0.3 mg/kg IV twice weekly), patient 101-14) was “hypertransaminasemia—grade 3 (possibly)” and the “BCV-related adverse event, grade” value ([1]; cohort 2 (0.3 mg/kg IV twice weekly), patient 109-03) was “nausea—grade 1 (possibly)”. The “Grade 3 adverse events (number)” value ([1]; cohort 2: 0.3 mg/kg IV twice weekly) was 2, the “BCV-related adverse event, grade” value ([1]; cohort 3 (0.4 mg/kg IV twice weekly), patient 102-02, 0.4 mg/kg) was “increased ALT—grade 3 (possibly); also recorded: increased AST—grade 3 (possibly)” and the “BCV-related adverse event, grade” value ([1]; cohort 3 (0.4 mg/kg IV twice weekly), patient 109-04, 0.4 mg/kg) was “feeling of a racing heart—grade 1 (possibly); also recorded: nausea—grade 1 (possibly)”. For the same compound, the “Grade 3 adverse events (number)” value ([1]; cohort 3: 0.4 mg/kg IV twice weekly) was 1, the “AUCinf and Cmax of BCV in plasma, cohort 3 patients versus healthy controls” value ([2]; BCV administered alone) was “substantially the same” and the “increase of AUCinf of BCV in plasma compared with BCV alone” value [2, 3] was “approximately 3.4 fold”. The “increase of Cmax of BCV in plasma compared with BCV alone” value [2, 3] was ~2.3 fold, the “increase of AUCinf of BCV in plasma compared with BCV alone” value [2, 4] was “approximately 1.8 fold” and the “increase of Cmax of BCV in plasma compared with BCV alone” value [2, 4] was ~1.3 fold. For the same compound, the “effect of cyclosporine administration on the blood concentration of BCV” value ([2]; statement in the embodiments, no test described) was “does not affect”.
